Values quoted from earlier work as cited in US7981441B2, “Drug delivery systems using mesoporous oxide films” (The Board of Trustees of the Leland Stanford Junior …, priority 2004, dated 2011).

Columns and labels:
[1] = system: rabbit neointimal hyperplasia; settings: pLA/pCL copolymer-coated stents containing 200 μg of paclitaxel; months after stent implantation
[2] = system: porcine neointimal hyperplasia; settings: bare stent, dip-coating; 0, 0.2, 15 and 187 μg/stent; at 4 weeks
[3] = 4 to six acrylate sleeves each loaded with 800 micrograms

Row | Compound | effect on rabbit neointimal hyperplasia [1] | effect on porcine neointimal hyperplasia [2] | clinical outcome of study [3]
1 | CC(=O)O[C@H]1C(=O)[C@@]2(C)[C@H]([C@H](OC(=O)c3ccccc3)[C@]3(O)C[C@H](OC(=O)[C@H](O)[C@@H](NC(=O)c4ccccc4)c4ccccc4)C(C)=C1C3(C)C)[C@]1(OC(C)=O)CO[C@@H]1C[C@@H]2O [paclitaxel] | virtually abolished | significant dose-dependent inhibition | 
2 | CCCCCC(=O)O[C@H]1C[C@H]2OC[C@@]2(OC(C)=O)[C@H]2[C@H](OC(=O)c3ccccc3)[C@]3(O)C[C@H](OC(=O)[C@H](O)[C@@H](NC(=O)c4ccccc4)c4ccccc4)C(C)=C([C@@H](OC(C)=O)C(=O)[C@]12C)C3(C)C [7-hexanoyltaxol] |  |  | clinically unpromising
